Experimental data: EPA's ToxValDB 9.5 (doi:10.2903/j.efsa.2006.86r)
In brackets after ≈: the same amount, converted by molar mass.

Experiments:
Aphidius rhopalosiphi = assay: LR50; higher = less toxic; details: acute; duration: 48 hours; reproduction
Typhlodromus pyri = assay: LR50; higher = less toxic; details: acute; duration: 48 hours; reproduction
Coturnix japonica = details: acute; oral; mortality
Daphnia magna = details: chronic/long-term; duration: 21 days
Canidae = details: chronic; duration: 1 years; oral; Dog Other; clinical chemistry
Apis mellifera = details: acute, mortality

CCS(=O)CCSP(=O)(OC)OC (stereo unspecified) [Oxydemeton-methyl]
LR50 (Aphidius rhopalosiphi): 42.5 g/ha
LR50 (Typhlodromus pyri): 143 g/ha
LD50 (Coturnix japonica): 29 mg/kg
LD50 (Rattus norvegicus; acute, oral, mortality): 48 mg/kg
NOAEL (Rattus norvegicus; chronic, duration: 2 years, clinical chemistry): 0.03 mg/kg-day
NOAEL (Rattus norvegicus; reproduction developmental, M, reproduction): 0.15 mg/kg-day
NOAEL (Rattus norvegicus; short-term, duration: 14 days, oral, clinical chemistry): 0.15 mg/kg-day
NOAEL (Rattus norvegicus; subchronic, duration: 90 days, oral, clinical chemistry): 0.1 mg/kg-day
NOEC (Daphnia magna): 0.027 mg/L
LD50 (Colinus virginianus; acute, oral, M, mortality): 34 mg/kg
NOEC (Colinus virginianus; reproduction developmental): 0.97 mg/kg-day
NOEL (Colinus virginianus; short-term, oral, diet, mortality): 56.6 mg/kg-day
LC50 (Tagia sp.; acute, duration: 14 days, mortality): 115 mg/kg
NOEC (Tagia sp.; chronic/long-term, duration: 56 days, reproduction): 412 g/ha
NOEC (Anas platyrhynchos; reproductive): 7.65 mg/kg-day
NOEL (Anas platyrhynchos; short-term, oral, feed, mortality): 119 mg/kg-day
NOAEL (Canidae): 0.1 mg/kg-day
LC50 (Oncorhynchus mykiss; acute, duration: 96 hours, mortality): 17 µg/mL (≈ 69 µM)
NOEC (Oncorhynchus mykiss; chronic/long-term, duration: 98 days): 1.8 mg/L
LD50 (Apis mellifera; duration: 48 hours, oral, unspecified): 0.2 µg/piece
LD50 (Apis mellifera; duration: 72 hours, dermal): 0.175 µg/piece
